Where a name gives a salt, the structure may show the parent alone.
Tests used:
[1] = Retention/elution of gentamicin from adhesive composition matrix (HPLC); assay type: physicochemical; settings: 2.5% w/w or 5% w/w gentamicin, PBS, 37° C., 10 days incubation
Method: Several formulations of compositions comprising antibiotics (AB) were investigated. The retention of the AB within the compositions may avoid or prevent bacterial colonization on or within the cured adhesive composition or any post-operative infection that could develop. The retention study was analyzed using elution studies, wherein high-pressure liquid chromatography (HPLC) was used to analyze the amount of AB released over time. Particularly, the elution profile of gentamicin from adhesive composition matrix was analyzed at days 1, 3, 5 and 10.
Several compositions were tested by adding either 2.5% w/w or 5% w/w of gentamicin to the tetracalcium phosphate and phosphoserine powder blend. Each cylinder was immersed in a polypropylene tube with 5 ml phosphate buffered saline (PBS) and shaken in a rotator at 37° C. Over the study period of 10 days, daily transfer of the cement cylinder into a test tube with PBS was conducted after saline washings. Elution samples of PBS was collected at various time points over a period of 10 days. The control was adhesive composition with no gentamicin, and the standard was different concentration of gentamicin alone.

[2] = assay type: physicochemical
Method: Several formulations of compositions comprising pain relievers (e.g., locally acting analgesics (e.g., naproxen and diclofenac) or local anesthetics (e.g. bupivacaine and articaine) were investigated for their affinity to the adhesive composition. The affinity of the therapeutic depends on the nature of the therapeutic and its interaction with the composition. This is measured as the partition coefficient which is the ratio of the amount of drug released from the composition to the ratio of the amount of drug retained in the composition under specific conditions.
The specific composition (e.g., adhesive composition) comprised 400 mg tetracalcium phosphate, 250 mg phosphoserine (a compound in FIG. 1V-a), and 135 μl of water that was prepared by mixing for 30 seconds, after which the mixture was formed into standard spherical substrates and allowed to cure. The substrate was then crushed using a mortar and pestle and used as a control. For the composition comprising a therapeutic, 1% w/w of the therapeutic was added to the tetracalcium phosphate and phosphoserine powder blend. The therapeutic was thoroughly mixed with tetracalcium phosphate and phosphoserine, after which deionized water was added and mixed for 30 seconds. Standard spherical substrates approximately 8 mm in diameter of adhesive composition were prepared. After curing, the substrate was crushed using mortar and pestle and the samples were incubated in 50 mL 1× PBS solution for 18 hours at 37° C. The partition coefficient of the therapeutic was evaluated using high-pressure liquid chromatography (HPLC) as shown in Table 3 below.

[3] = Release of bupivacaine from porous adhesive composition formulation (HPLC elution); assay type: physicochemical; settings: 10% w/w drug, 50 mL 1x PBS, 7-day period, 37° C.
Method: Several formulations of compositions comprising pain relievers (e.g., local anesthetics (e.g. bupivacaine)) were investigated. […] The release study was analyzed using elution studies, where HPLC was used to analyze the amount of pain reliever released over time. The elution profile of bupivacaine from a porous adhesive composition matrix was analyzed over a 7-day period.
The particle size of calcium carbonate was between 15 nm to 40 nm. This formulation was used a control for the study. […] A bupivacaine formulation was tested by adding 10% w/w of the drug to the tetracalcium phosphate and phosphoserine powder blend. Standard spherical substrates of approximately 8 mm in diameter of porous adhesive bone regenerative were prepared. After curing, the samples were incubated in 50 mL 1× PBS solution for 7-days at 37° C.

[4] = Properties of exemplary adhesive compositions (compound + tetra-calcium phosphate + water); assay type: physicochemical; settings: mixed with tetra-calcium phosphate and water
Method: Exemplary adhesive compositions were prepared by providing the compounds listed in Table 1 and tetra-calcium phosphate in a suitable receptacle and mixing with water to achieve the desired consistency. While water was used as the aqueous medium in the present compositions, the aqueous medium may instead be blood, saliva, serum, or a blood-based solution or suspension. In the present compositions, the solid components (compounds, tetra-calcium phosphate) were provided as particles. However, the solid components listed in the table may be provided in particle, granule, or fiber form, and the size of each of the components may vary as described in the Detailed Description. In some embodiments, the resulting properties, such as working and setting time, may be affected by these changes. The specific mean particle, granule, or fiber size for each solid component was selected to satisfy the use requirements as described in each of the embodiments.
The compounds comprising glyphosine, O-Phospho-L-serine (OPLS), […] […] After mixing, the compositions described were applied to the desired site and the adhesive properties examined, e.g., for tensile strength and durability.

[5] = 8% w/w naproxen, ssNMR

Partition coefficient [2]	Compound	Properties of the adhesive composition prepared with the compound [4]	other results
	gentamicin		Retention of gentamicin in the adhesive composition [1]: most of gentamicin was retained
0.61	CC(=O)Oc1ccccc1C(=O)O [Aspirin]		
0.37	CCCCN1CCCCC1C(=O)Nc1c(C)cccc1C (stereo not drawn) [Bupivacaine•HCl]		% bupivacaine release, porous vs non-porous formulation [3]: remarkable increase
	O=C(O)CN(CP(=O)(O)O)CP(=O)(O)O [glyphosine, N,N-Bis(phosphonomethyl)glycine]	injectable, adhesive, tacky, and self-setting	
	COc1ccc2cc([C@H](C)C(=O)O)ccc2c1 [Naproxen]		Elution of naproxen from the adhesive composition ([5]; crushed, 10 mL 1x PBS, 4-days, 37° C.): almost fully eluted; Modification of chemical structure upon inclusion in the adhesive composition [5]: no modification of the naproxen chemical structure
	N[C@@H](COP(=O)(O)O)C(=O)O [O-Phospho-L-serine, O-Phospho-L-Serine]	injectable, adhesive, tacky, and self-setting	
	O=P(O)(O)CN(CP(=O)(O)O)CP(=O)(O)O [aminotris(methylenephosphonic acid), (Nitrilotris(methylene)) triphosphonic acid]	injectable, adhesive, tacky, and self-setting	
	O=C(O)CN(CCN(CC(=O)O)CC(=O)O)CC(=O)O [ethylenediaminetetraacetic acid, Ethylenediamine tetraacetic acid]	injectable, adhesive, tacky, and self-setting	
0	CC(C)Cc1ccc(C(C)C(=O)O)cc1 (stereo not drawn) [Ibuprofen]		
0.103	O=C(O)Cc1ccccc1Nc1c(Cl)cccc1Cl [Diclofenac•Na]		

Source: US20220401617A1, “ADHESIVE COMPOSITIONS COMPRISING THERAPEUTICS” (RevBio, Inc., priority 2019, published 2022)
